Source: the supplement of paper PMC8372320

Assay: photocatalytic hydrogen evolution rate (per 5 mg catalyst); higher = more photocatalytic H2 evolution; extreme values may be limits of the assay
Conditions: catalyst mass (mg): 5; Pt cocatalyst (wt%): 3; sacrificial medium: triethylamine/methanol/water 1:1:1
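Also: aromatic molecules in triethylamine/methanol/water with Pt photoreduced in situ, irradiated 3 h under a 1 sun AM 1.5G solar simulator (350–1000 nm), H2 quantified by headspace gas chromatography; listed molecule itself used as the photocatalyst at 5 mg per vial.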

First: COC(=O)c1cc(C(=O)OC)c(C(=O)OC)cc1C(=O)OC
Second: COC(=O)c1cccc2cc3cccc(C(=O)OC)c3cc12
The “photocatalytic hydrogen evolution rate” value of the first is lower: 0 µmol/h for the first, 0.0378 µmol/h for the second.

`Nc1cccc2ccccc12` and `Nc1ccccc1-c1ccccc1` are the same in “photocatalytic hydrogen evolution rate” value: 0 µmol/h for the first, 0 µmol/h for the second.

Going from `N#Cc1cc(C#N)cc(C#N)c1` to `N#Cc1cc(F)cc(C#N)c1`, the “photocatalytic hydrogen evolution rate” value falls from 0.00175 µmol/h to 0 µmol/h.

Compared with `COC(=O)/C=C/c1ccccc1`, `O=C(/C=C/c1ccccc1)c1ccccc1` is higher in “photocatalytic hydrogen evolution rate” value: 0 µmol/h for the first, 0.146 µmol/h for the second.

First: O=C(O)[C@@H]1CCC(=O)N1C(=O)OCc1ccccc1
Second: N[C@@H](Cc1ccccc1)C(=O)O
The “photocatalytic hydrogen evolution rate” value of the first is lower: 0 µmol/h for the first, 0.0539 µmol/h for the second.

First: Brc1ccc2c(c1)[nH]c1cc(Br)ccc12
Second: Cn1c2ccc(Br)cc2c(=O)c2cc(Br)ccc21
The “photocatalytic hydrogen evolution rate” value of the first is lower: 0 µmol/h for the first, 9.21 µmol/h for the second.

`O=Cc1ccc(O)c(O)c1` and `O=Cc1ccc(Cl)c(O)c1` are the same in “photocatalytic hydrogen evolution rate” value: 0 µmol/h for the first, 0 µmol/h for the second.

Going from `O=Cc1cc(F)cc(Br)c1` to `Cc1cc(C=O)ccc1O`, the “photocatalytic hydrogen evolution rate” value falls from 0.0795 µmol/h to 0.0172 µmol/h.

`C#Cc1ccc(C=O)cc1` and `N#Cc1ccc(O)cc1` are the same in “photocatalytic hydrogen evolution rate” value: 0 µmol/h for the first, 0 µmol/h for the second.

First: N#CC(C#N)=c1c(F)c(F)c(=C(C#N)C#N)c(F)c1F
Second: N#Cc1c(F)c(F)c(F)c(C#N)c1F
The “photocatalytic hydrogen evolution rate” value of the first is lower: 0 µmol/h for the first, 0.386 µmol/h for the second.

First: O=C1CCc2ccccc21
Second: O=S1(=O)c2ccccc2-c2ccccc21
The “photocatalytic hydrogen evolution rate” value of the first is lower: 0.101 µmol/h for the first, 0.222 µmol/h for the second.

`Nc1c(F)c(F)c(N)c(F)c1F` and `Oc1c(F)c(F)c(O)c(F)c1F` are the same in “photocatalytic hydrogen evolution rate” value: 0 µmol/h for the first, 0 µmol/h for the second.

`CC(C)c1cc(C(C)C)c(-c2ccccc2P(C(C)(C)C)C(C)(C)C)c(C(C)C)c1` and `CC(C)(C)c1cc(C=O)cc(C(C)(C)C)c1O` are the same in “photocatalytic hydrogen evolution rate” value: 0 µmol/h for the first, 0 µmol/h for the second.

First: CC1(C)OB(c2cc3ccc4cc(B5OC(C)(C)C(C)(C)O5)cc5ccc(c2)c3c45)OC1(C)C
Second: CC1(C)OB(c2ccc3c(c2)[nH]c2ccccc23)OC1(C)C
The “photocatalytic hydrogen evolution rate” value of the first is higher: 0.0847 µmol/h for the first, 0 µmol/h for the second.

First: O=c1[nH]cc[nH]1
Second: COc1ccc2c3c(cccc13)C(=O)N(C)C2=O
The “photocatalytic hydrogen evolution rate” value of the first is lower: 0 µmol/h for the first, 1.91 µmol/h for the second.

Compared with `Nc1c(Br)cc2[nH]cnc2c1Br`, `N#Cc1cc(Br)cc(Br)c1O` is higher in “photocatalytic hydrogen evolution rate” value: 0 µmol/h for the first, 0.31 µmol/h for the second.

`N#Cc1nccnc1C#N` and `N#Cc1cccnc1C#N` are the same in “photocatalytic hydrogen evolution rate” value: 0 µmol/h for the first, 0 µmol/h for the second.

Compared with `N#Cc1cccc(N)c1`, `N#Cc1ccnc(Br)c1` is higher in “photocatalytic hydrogen evolution rate” value: 0 µmol/h for the first, 0.0187 µmol/h for the second.

`O=C(O)C(c1ccccc1)(c1ccccc1)c1ccccc1` and `c1ccc(-c2cccc(-c3ccccc3)c2)cc1` are the same in “photocatalytic hydrogen evolution rate” value: 0 µmol/h for the first, 0 µmol/h for the second.

Going from `Brc1ccnc(-c2cc(Br)ccn2)c1` to `CC1(C)c2cc(Br)ccc2-c2ccc(Br)cc21`, the “photocatalytic hydrogen evolution rate” value rises from 0 µmol/h to 0.0799 µmol/h.

First: Brc1ccc(-c2ccc(-c3ccc(Br)cc3)cc2)cc1
Second: Brc1ccc(-c2nc(-c3ccc(Br)cc3)nc(-c3ccc(Br)cc3)n2)cc1
The “photocatalytic hydrogen evolution rate” value of the first is lower: 0 µmol/h for the first, 0.0311 µmol/h for the second.

First: O=C(C(=O)c1ccccc1)c1ccccc1
Second: O=Cc1cccc(-c2ccccc2)c1
The “photocatalytic hydrogen evolution rate” value of the first is lower: 0.736 µmol/h for the first, 3.14 µmol/h for the second.

`O=C(O)Cc1ccc(Br)cc1Br` and `S=C=Nc1cc(Br)ccc1Br` are the same in “photocatalytic hydrogen evolution rate” value: 0 µmol/h for the first, 0 µmol/h for the second.

`N#Cc1cccc(C#N)n1` and `N#Cc1ccc(Br)cn1` are the same in “photocatalytic hydrogen evolution rate” value: 0 µmol/h for the first, 0 µmol/h for the second.

First: O=c1oc(=O)c2cc3c(=O)oc(=O)c3cc12
Second: O=C1c2ccc(O)cc2C(=O)c2ccc(O)cc21
The “photocatalytic hydrogen evolution rate” value of the first is lower: 0 µmol/h for the first, 2.69 µmol/h for the second.

Going from `O=Cc1ccc2ccc3cccc4ccc1c2c34` to `O=Cc1ccc(N(c2ccccc2)c2ccc(C=O)cc2)cc1`, the “photocatalytic hydrogen evolution rate” value falls from 10.3 µmol/h to 1.17 µmol/h.

`CCN(CCO)c1ccc(N=Nc2ccc([N+](=O)[O-])cc2)cc1` and `N#Cc1ccc(CCc2ccc(C#N)cc2)cc1` are the same in “photocatalytic hydrogen evolution rate” value: 0 µmol/h for the first, 0 µmol/h for the second.

`N#Cc1ncccc1Br` and `N#Cc1cncc(Br)c1` are the same in “photocatalytic hydrogen evolution rate” value: 0 µmol/h for the first, 0 µmol/h for the second.

First: O=Cc1ccc2c(c1)c1ccccc1n2-c1ccccc1
Second: N#Cc1c2ccccc2c(C#N)c2ccccc12
The “photocatalytic hydrogen evolution rate” value of the first is higher: 2.51 µmol/h for the first, 0.0714 µmol/h for the second.

`Brc1ccc(-c2ccc(-c3ccc(Br)s3)s2)s1` and `Brc1ccc(C#Cc2ccc(Br)cc2)cc1` are the same in “photocatalytic hydrogen evolution rate” value: 0 µmol/h for the first, 0 µmol/h for the second.

`Brc1cnc(Br)nc1` and `Brc1cncc(Br)c1` are the same in “photocatalytic hydrogen evolution rate” value: 0 µmol/h for the first, 0 µmol/h for the second.

First: c1ccc2c(c1)c1ccccc1n2-c1ccc(N(c2ccc(-n3c4ccccc4c4ccccc43)cc2)c2ccc(-n3c4ccccc4c4ccccc43)cc2)cc1
Second: N#Cc1c(-n2c3ccccc3c3ccccc32)c(-n2c3ccccc3c3ccccc32)c(C#N)c(-n2c3ccccc3c3ccccc32)c1-n1c2ccccc2c2ccccc21
The “photocatalytic hydrogen evolution rate” value of the first is lower: 0 µmol/h for the first, 1.6 µmol/h for the second.

Compared with `Oc1cc2c3cc(O)c(O)cc3c3cc(O)c(O)cc3c2cc1O`, `CC(=O)c1c(O)cccc1O` is lower in “photocatalytic hydrogen evolution rate” value: 0.155 µmol/h for the first, 0 µmol/h for the second.

`c1ccc(Nc2cc(Nc3ccccc3)cc(Nc3ccccc3)c2)cc1` and `N#Cc1ccc(-c2ccccc2)cc1` are the same in “photocatalytic hydrogen evolution rate” value: 0 µmol/h for the first, 0 µmol/h for the second.

`OB(O)c1cc(F)c(B(O)O)cc1F` and `Fc1cc(Br)c(Br)cc1F` are the same in “photocatalytic hydrogen evolution rate” value: 0 µmol/h for the first, 0 µmol/h for the second.

`Oc1ccc(O)cc1` and `O=C(c1ccc(O)cc1)c1ccc(O)cc1` are the same in “photocatalytic hydrogen evolution rate” value: 0 µmol/h for the first, 0 µmol/h for the second.

Going from `N#Cc1ccc(C#N)c2ccccc12` to `N#Cc1ccc(-c2ccc(C#N)cn2)nc1`, the “photocatalytic hydrogen evolution rate” value falls from 0.0654 µmol/h to 0 µmol/h.

Going from `O=C(O)c1c(C(=O)O)c(C(=O)O)c(C(=O)O)c(C(=O)O)c1C(=O)O` to `O=C(O)c1ccc(-c2cc(-c3ccc(C(=O)O)cc3)cc(-c3ccc(C(=O)O)cc3)c2)cc1`, the “photocatalytic hydrogen evolution rate” value rises from 0 µmol/h to 0.00212 µmol/h.

`N#Cc1cc(Br)cs1` and `O=Cc1ccc(Br)cn1` are the same in “photocatalytic hydrogen evolution rate” value: 0 µmol/h for the first, 0 µmol/h for the second.

`c1ncncn1` and `OB(O)c1ccc(Br)nc1` are the same in “photocatalytic hydrogen evolution rate” value: 0 µmol/h for the first, 0 µmol/h for the second.

Compared with `Fc1c(I)ccc(I)c1F`, `COc1ccc(B(O)O)cc1C=O` is higher in “photocatalytic hydrogen evolution rate” value: 0 µmol/h for the first, 2.76 µmol/h for the second.

Compared with `N#CCc1cccc(CC#N)c1`, `CC(C)(C)c1ccc(C(=O)CC#N)cc1` is higher in “photocatalytic hydrogen evolution rate” value: 0 µmol/h for the first, 0.0435 µmol/h for the second.

Going from `Nc1ccc(C(=O)O)cc1` to `CC(=O)c1ccc(-c2ccc(C(C)=O)cc2)cc1`, the “photocatalytic hydrogen evolution rate” value rises from 0.059 µmol/h to 3.67 µmol/h.

Going from `O=Cc1c(O)c(C=O)c(O)c(C=O)c1O` to `O=Cc1cccc(C=O)n1`, the “photocatalytic hydrogen evolution rate” value falls from 1.03 µmol/h to 0 µmol/h.

Compared with `Fc1c(F)c(F)c(B(c2c(F)c(F)c(F)c(F)c2F)c2c(F)c(F)c(F)c(F)c2F)c(F)c1F`, `COc1cc(Br)c(OC)cc1Br` is lower in “photocatalytic hydrogen evolution rate” value: 0.0455 µmol/h for the first, 0 µmol/h for the second.
